According to ChEMBL document CHEMBL1201862, “PubChem BioAssay data set” (2004):
Values belong to the compound of their own block, whether it stands above or below them. Active and inactive are the calls of the source.

Tests used:
Format in all cases: functional
[1] = biological target: Receptor-type tyrosine-protein kinase FLT3 (Homo sapiens, UniProt P36888);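 also: FLT3 was tested as one member of a kinome-wide kinase panel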
[2] = biological target: LIM domain kinase 1 (Homo sapiens, UniProt P53667); assay: Navigating the Kinome. Panel member name: LIMK1
[3] = biological target: 5'-AMP-activated protein kinase catalytic subunit alpha-1 (Homo sapiens, UniProt Q13131)
[4] = biological target: Mitogen-activated protein kinase 8 (Homo sapiens, UniProt P45983);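 also: value comes from one member of a kinome-wide kinase profiling panel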
[5] = biological target: Cyclin-dependent kinase 8 (Homo sapiens, UniProt P49336); assay: Navigating the Kinome. Panel member name: CDK8
[6] = biological target: Dual specificity tyrosine-phosphorylation-regulated kinase 1B (Homo sapiens, UniProt Q9Y463); assay: Navigating the Kinome. Panel member name: DYRK1B
[7] = biological target: Mitogen-activated protein kinase 9 (Homo sapiens, UniProt P45984);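 also: value from a kinome panel profiling assay, MAPK9 panel entry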
[8] = biological target: Mitogen-activated protein kinase 14 (Homo sapiens, UniProt Q16539);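 also: part of a kinome-wide panel, MAPK14 entry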
[9] = biological target: ALK tyrosine kinase receptor (Homo sapiens, UniProt Q9UM73);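 also: ALK tested as one member of a kinase panel screen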
[10] = biological target: T1, Aurora kinase A (Homo sapiens, UniProt O14965);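 also: value from the Navigating the Kinome kinase panel profiling, panel entry STK6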
T1 sequence (O14965 whole entry): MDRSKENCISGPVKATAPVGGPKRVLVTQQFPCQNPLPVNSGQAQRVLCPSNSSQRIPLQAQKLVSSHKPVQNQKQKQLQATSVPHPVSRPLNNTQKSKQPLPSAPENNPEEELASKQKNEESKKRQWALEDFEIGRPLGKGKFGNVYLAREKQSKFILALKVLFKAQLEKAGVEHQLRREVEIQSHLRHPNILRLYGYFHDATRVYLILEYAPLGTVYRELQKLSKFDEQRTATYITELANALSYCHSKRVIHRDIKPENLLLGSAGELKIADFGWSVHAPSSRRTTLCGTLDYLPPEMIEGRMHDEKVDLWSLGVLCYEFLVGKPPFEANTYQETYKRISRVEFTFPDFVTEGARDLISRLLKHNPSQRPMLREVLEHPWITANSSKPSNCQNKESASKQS

[11] = biological target: Serine/threonine-protein kinase TAO1 (Homo sapiens, UniProt Q7L7X3)
[12] = biological target: Dual specificity mitogen-activated protein kinase kinase 1 (Homo sapiens, UniProt Q02750); assay: Navigating the Kinome. Panel member name: MAP2K1
[13] = biological target: Death-associated protein kinase 3 (Homo sapiens, UniProt O43293);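 also: measured as one member of a kinome-wide profiling panel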
[14] = biological target: Casein kinase I isoform alpha (Homo sapiens, UniProt P48729)
[15] = biological target: Serine/threonine-protein kinase pim-1 (Homo sapiens, UniProt P11309)
[16] = biological target: Tyrosine-protein kinase Fyn (Homo sapiens, UniProt P06241)
[17] = biological target: Dual specificity mitogen-activated protein kinase kinase 2 (Homo sapiens, UniProt P36507); assay: Navigating the Kinome. Panel member name: MAP2K2
[18] = biological target: cAMP-dependent protein kinase catalytic subunit PRKX (Homo sapiens, UniProt P51817)
[19] = biological target: Serine/threonine-protein kinase Chk1 (Homo sapiens, UniProt O14757);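 also: measured as one member of a kinome-wide kinase profiling panel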
[20] = biological target: Leucine-rich repeat serine/threonine-protein kinase 2 (Homo sapiens, UniProt Q5S007);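 also: value from a broad kinome-wide panel profiling study in which LRRK2 was one of the kinases tested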
[21] = biological target: Activated CDC42 kinase 1 (Homo sapiens, UniProt Q07912); assay: Navigating the Kinome. Panel member name: ACK1
[22] = system: CHO-K1; assay: (§1) Counterscreen for antagonists of the orexin 1 receptor (OX1R; HCRTR1): Homogeneous time resolved fluorescence (HTRF)-based cell-based dose response assay to identify antagonists of the parental CHO-K1 cell line. [Related pubchem assays (depositor defined):AID434989, AID435008, AID463079, AID485270, AID492963, AID492964, AID492965, AID493232, AID504699, AID504701]; details: Cricetulus griseus
[23] = biological target: T2, Sentrin-specific protease 6 (Homo sapiens, UniProt Q9GZR1);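 also: Luminescence-based dose-response confirmatory assay of SENP6 inhibition, following up an ultra-high-throughput screen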
T2 sequence (Q9GZR1 whole entry): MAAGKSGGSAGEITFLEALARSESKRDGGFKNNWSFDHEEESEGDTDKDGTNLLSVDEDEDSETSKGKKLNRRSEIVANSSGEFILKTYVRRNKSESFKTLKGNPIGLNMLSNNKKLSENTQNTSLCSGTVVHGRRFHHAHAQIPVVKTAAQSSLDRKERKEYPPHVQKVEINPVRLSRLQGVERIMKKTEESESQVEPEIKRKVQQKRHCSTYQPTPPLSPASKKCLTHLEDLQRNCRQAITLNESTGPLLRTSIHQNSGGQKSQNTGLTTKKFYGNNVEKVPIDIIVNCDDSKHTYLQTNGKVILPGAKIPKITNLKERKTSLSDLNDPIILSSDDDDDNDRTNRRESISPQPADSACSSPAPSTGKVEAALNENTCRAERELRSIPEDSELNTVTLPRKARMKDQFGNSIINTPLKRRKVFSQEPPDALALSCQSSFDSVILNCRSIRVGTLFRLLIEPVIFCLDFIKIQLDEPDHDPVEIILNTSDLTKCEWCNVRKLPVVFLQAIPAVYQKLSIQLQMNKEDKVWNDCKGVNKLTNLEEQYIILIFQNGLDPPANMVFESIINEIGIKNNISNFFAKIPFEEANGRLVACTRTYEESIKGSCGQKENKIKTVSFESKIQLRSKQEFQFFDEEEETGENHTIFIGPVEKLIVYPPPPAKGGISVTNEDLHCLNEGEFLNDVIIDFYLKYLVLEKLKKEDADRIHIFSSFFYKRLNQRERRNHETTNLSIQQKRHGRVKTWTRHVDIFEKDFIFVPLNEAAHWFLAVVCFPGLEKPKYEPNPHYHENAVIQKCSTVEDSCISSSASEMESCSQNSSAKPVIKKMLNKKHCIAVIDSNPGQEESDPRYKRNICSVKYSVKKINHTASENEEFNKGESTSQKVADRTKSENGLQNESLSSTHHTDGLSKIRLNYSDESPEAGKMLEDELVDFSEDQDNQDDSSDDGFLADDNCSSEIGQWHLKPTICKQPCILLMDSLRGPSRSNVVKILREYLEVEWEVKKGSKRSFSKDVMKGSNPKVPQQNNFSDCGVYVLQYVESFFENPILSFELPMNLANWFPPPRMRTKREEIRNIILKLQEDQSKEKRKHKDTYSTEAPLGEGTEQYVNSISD

[24] = as §1, with “Fluorescence-based” for “Homogeneous time resolved fluorescence (HTRF)-based”, “cell-based high throughput” for “cell-based”, “CHO” for “CHO-K1”

Mitogen-activated protein kinase 9, sequence (P45984 whole entry): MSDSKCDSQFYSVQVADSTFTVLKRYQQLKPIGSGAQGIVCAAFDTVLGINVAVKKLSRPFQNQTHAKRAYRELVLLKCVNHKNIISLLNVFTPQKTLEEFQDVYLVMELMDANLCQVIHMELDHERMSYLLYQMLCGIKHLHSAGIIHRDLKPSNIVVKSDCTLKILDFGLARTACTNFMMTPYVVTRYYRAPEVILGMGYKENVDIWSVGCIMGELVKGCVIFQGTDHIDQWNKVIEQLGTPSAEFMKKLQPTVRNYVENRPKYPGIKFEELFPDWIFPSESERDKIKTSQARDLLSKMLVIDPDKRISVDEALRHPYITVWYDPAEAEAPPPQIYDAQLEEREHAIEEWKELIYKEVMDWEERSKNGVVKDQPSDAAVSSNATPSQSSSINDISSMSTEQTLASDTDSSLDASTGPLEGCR
Serine/threonine-protein kinase TAO1, sequence (Q7L7X3 whole entry): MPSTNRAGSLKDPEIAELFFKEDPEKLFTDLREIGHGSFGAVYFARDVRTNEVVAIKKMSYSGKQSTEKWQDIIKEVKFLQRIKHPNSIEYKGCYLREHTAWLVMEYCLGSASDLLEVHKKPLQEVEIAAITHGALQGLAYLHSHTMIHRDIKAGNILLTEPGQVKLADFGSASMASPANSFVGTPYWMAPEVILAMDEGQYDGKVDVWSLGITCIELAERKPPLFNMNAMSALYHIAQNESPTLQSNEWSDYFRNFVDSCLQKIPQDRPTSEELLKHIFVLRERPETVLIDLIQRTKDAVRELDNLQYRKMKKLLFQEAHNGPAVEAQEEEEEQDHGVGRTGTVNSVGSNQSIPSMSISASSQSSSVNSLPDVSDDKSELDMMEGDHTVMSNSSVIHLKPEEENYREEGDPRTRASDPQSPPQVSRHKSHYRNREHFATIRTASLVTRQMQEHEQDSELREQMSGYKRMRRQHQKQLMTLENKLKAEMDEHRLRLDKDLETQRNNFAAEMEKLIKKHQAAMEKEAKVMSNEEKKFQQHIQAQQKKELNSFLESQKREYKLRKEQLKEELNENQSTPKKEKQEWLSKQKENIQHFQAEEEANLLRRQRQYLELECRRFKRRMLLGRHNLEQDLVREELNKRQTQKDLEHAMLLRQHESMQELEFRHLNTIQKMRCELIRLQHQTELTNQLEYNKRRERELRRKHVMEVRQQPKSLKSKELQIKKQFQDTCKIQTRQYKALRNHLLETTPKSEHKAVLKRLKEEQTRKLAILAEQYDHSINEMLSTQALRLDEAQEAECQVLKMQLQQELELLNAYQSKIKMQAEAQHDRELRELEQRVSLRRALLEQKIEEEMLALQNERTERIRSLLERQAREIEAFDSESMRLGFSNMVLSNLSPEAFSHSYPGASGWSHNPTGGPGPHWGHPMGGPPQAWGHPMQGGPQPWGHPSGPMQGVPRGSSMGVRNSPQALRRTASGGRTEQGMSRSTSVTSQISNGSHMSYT
Serine/threonine-protein kinase pim-1, sequence (P11309 whole entry): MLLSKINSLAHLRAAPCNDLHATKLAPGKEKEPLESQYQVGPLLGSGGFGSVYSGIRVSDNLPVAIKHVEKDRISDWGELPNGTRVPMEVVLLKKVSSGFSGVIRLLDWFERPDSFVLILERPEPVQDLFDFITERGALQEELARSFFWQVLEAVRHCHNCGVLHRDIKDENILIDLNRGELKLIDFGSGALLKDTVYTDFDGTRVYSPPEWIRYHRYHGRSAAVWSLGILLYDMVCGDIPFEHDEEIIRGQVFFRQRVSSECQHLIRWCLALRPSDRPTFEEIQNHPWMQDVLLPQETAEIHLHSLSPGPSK
cAMP-dependent protein kinase catalytic subunit PRKX, sequence (P51817 whole entry): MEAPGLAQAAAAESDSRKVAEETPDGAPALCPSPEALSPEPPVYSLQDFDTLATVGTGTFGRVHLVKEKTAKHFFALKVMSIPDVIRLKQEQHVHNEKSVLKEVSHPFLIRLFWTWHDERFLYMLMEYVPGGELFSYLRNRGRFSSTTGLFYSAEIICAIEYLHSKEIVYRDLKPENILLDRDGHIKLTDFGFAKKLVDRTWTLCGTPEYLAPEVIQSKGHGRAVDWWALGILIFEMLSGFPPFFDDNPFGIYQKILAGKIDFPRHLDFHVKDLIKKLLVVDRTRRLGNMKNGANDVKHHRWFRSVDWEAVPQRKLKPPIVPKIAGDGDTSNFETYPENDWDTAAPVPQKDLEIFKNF
Dual specificity tyrosine-phosphorylation-regulated kinase 1B, sequence (Q9Y463 whole entry): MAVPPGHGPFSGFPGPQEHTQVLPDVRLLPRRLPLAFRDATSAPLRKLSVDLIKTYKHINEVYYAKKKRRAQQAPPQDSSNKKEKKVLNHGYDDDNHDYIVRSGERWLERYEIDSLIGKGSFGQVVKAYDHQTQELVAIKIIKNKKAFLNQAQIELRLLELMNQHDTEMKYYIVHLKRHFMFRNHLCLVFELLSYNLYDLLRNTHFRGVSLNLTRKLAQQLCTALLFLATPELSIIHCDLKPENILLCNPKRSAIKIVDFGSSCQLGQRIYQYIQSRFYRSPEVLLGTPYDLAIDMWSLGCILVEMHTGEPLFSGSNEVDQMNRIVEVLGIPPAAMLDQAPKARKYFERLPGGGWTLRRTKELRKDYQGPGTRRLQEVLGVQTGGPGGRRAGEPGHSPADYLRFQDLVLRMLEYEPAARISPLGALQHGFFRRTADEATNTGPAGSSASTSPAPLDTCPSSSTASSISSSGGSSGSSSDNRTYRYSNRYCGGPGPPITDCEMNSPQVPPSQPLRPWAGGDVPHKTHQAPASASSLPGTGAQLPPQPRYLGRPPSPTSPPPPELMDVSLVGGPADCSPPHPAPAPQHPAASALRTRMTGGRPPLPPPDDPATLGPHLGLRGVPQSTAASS
5'-AMP-activated protein kinase catalytic subunit alpha-1, sequence (Q13131 whole entry): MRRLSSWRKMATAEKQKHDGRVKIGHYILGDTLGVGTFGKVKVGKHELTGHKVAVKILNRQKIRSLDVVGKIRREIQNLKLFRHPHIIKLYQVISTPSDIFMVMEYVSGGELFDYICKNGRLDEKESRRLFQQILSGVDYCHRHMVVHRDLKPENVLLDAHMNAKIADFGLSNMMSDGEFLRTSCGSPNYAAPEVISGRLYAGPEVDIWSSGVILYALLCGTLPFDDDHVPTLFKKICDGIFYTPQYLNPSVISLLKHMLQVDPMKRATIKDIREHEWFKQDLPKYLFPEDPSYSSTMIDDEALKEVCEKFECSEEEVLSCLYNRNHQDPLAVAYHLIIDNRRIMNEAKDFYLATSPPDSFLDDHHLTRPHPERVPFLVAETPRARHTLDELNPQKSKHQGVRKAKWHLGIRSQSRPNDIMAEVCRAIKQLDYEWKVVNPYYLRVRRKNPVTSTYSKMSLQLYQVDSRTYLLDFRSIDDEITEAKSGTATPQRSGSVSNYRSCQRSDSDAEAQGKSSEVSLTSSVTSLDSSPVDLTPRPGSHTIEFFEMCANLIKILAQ
Cyclin-dependent kinase 8, sequence (P49336 whole entry): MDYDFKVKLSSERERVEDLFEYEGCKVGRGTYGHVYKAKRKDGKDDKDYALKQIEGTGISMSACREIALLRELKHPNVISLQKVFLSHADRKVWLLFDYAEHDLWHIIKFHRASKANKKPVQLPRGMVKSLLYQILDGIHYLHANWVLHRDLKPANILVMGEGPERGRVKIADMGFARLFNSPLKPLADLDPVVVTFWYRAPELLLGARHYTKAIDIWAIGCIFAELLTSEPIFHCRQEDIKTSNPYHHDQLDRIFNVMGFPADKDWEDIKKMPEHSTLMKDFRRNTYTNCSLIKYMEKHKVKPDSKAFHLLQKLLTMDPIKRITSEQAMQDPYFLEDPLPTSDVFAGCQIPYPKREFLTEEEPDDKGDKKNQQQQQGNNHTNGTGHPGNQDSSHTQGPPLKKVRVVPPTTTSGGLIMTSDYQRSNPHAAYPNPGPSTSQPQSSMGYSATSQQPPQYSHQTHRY
Receptor-type tyrosine-protein kinase FLT3, sequence (P36888 whole entry, the tested form may be a part): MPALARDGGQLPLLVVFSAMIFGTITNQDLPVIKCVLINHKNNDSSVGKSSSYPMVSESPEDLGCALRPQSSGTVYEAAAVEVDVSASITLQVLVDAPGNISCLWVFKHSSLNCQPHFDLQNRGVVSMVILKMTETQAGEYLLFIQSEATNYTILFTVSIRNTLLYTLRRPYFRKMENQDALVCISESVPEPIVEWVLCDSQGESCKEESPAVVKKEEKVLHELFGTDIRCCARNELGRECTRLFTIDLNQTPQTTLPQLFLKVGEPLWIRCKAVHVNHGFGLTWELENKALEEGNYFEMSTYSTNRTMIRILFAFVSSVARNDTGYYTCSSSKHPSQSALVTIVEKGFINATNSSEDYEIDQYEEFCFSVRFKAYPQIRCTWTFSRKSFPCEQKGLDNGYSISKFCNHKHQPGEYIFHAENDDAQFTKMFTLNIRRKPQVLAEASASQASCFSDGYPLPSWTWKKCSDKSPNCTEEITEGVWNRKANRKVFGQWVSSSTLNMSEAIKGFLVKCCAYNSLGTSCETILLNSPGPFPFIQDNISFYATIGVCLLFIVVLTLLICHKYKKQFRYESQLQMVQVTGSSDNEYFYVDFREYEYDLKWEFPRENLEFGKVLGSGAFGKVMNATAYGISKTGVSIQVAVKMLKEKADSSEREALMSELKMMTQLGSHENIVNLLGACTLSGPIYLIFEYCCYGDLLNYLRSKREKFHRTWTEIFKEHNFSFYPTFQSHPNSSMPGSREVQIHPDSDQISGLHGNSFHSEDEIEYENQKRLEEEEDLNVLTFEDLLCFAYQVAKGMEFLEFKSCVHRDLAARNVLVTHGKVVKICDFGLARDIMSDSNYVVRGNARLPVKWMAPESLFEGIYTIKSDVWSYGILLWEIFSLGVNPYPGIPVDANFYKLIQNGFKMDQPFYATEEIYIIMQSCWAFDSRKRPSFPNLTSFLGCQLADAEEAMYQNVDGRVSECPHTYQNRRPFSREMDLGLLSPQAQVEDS

Ki [1]: > 3.16 µM (inactive) | Ki [2]: > 3.16 µM (inactive) | Ki [3]: 2 µM (active) | Ki [4]: 3.98 µM (active) | Ki [5]: 0.0794 µM (active) | Ki [6]: 0.0398 µM (active) | Ki [7]: > 3.98 µM (inactive) | Ki [8]: > 3.98 µM (inactive) | Ki [9]: > 6.31 µM (inactive) | Ki [10]: > 1.58 µM (inactive) | Ki [11]: > 6.31 µM (inactive) | Ki [12]: 2.51 µM (active) | Ki [14]: 1.58 µM (active) | Ki [15]: 3.98 µM (active) | Ki [16]: > 6.31 µM (inactive) | Ki [17]: 3.16 µM (active) | Ki [18]: 0.158 µM (active) | Ki [19]: 2 µM (active) | Ki [20]: 0.631 µM (active) | Ki [21]: > 3.98 µM (inactive)
Compound: O=C(NCCc1cccs1)N1CC=C(c2c[nH]c3ncccc23)CC1
Ki [13]: 3.98 µM (active)

Compound: Cc1ccnc2ccc(-c3nc4ccccc4o3)cc12
IC50 [22]: > 66.2 µM (inactive) | IC50 [23]: 3.65 µM (active) | IC50 [24]: > 49.8 µM (inactive)
